From the NIST ThermoML archive (doi:10.1016/j.jct.2014.04.022)
“And” between values parts separate entries of the source, which are not always exact repeats. Equal values may be shown once. Numbers after ± are expanded uncertainties.

Legend:
[1] = Molar enthalpy of transition or fusion; settings: Crystal; DSC
[2] = molar heat capacity at constant pressure
[3] = 248.15 K; Liquid; Closed cell (Static) method
[4] = 253.15 K; Liquid; Closed cell (Static) method
[5] = 258.15 K; Liquid; Closed cell (Static) method
[6] = 263.15 K; Liquid; Closed cell (Static) method
[7] = 268.15 K; Liquid; Closed cell (Static) method
[8] = 273.15 K; Liquid; Closed cell (Static) method
[9] = 273.65 K; Liquid; Closed cell (Static) method
[10] = 278.15 K; Liquid; Closed cell (Static) method
[11] = 283.15 K; Liquid; Closed cell (Static) method
[12] = 288.15 K; Liquid; Closed cell (Static) method
[13] = 293.15 K; Liquid; Closed cell (Static) method
[14] = 298.15 K; Liquid; Closed cell (Static) method
[15] = 303.15 K; Liquid; Closed cell (Static) method
[16] = 308.15 K; Liquid; Closed cell (Static) method

CC12CCC(CC1)C(C)(C)O2 [1,3,3-trimethyl-2-oxabicyclo[2.2.2]octane]
Molar enthalpy of transition or fusion [1]: 3.3 ± 0.0956 kcal/mol
vapor or sublimation pressure (238.2 K; Crystal; Closed cell (Static) method): 0.00051 ± 0.00011 kPa and 0.000512 ± 0.00011 kPa
vapor or sublimation pressure (243.2 K; Crystal; Closed cell (Static) method): 0.001022 ± 0.00011 kPa and 0.001023 ± 0.00011 kPa
vapor or sublimation pressure (248.15 K; Crystal; Closed cell (Static) method): 0.00197 ± 0.00013 kPa and 0.001971 ± 0.00013 kPa and 0.001972 ± 0.00013 kPa
vapor or sublimation pressure (253.15 K; Crystal; Closed cell (Static) method): 0.003705 ± 0.00017 kPa and 0.003709 ± 0.00017 kPa and 0.003703 ± 0.00017 kPa
vapor or sublimation pressure (253.15 K; Metastable liquid; Closed cell (Static) method): 0.006217 ± 0.00026 kPa and 0.006221 ± 0.00026 kPa and 0.006222 ± 0.00026 kPa
vapor or sublimation pressure (258.15 K; Crystal; Closed cell (Static) method): 0.006771 ± 0.00028 kPa and 0.006776 ± 0.00028 kPa and 0.006782 ± 0.00028 kPa
vapor or sublimation pressure (258.15 K; Metastable liquid; Closed cell (Static) method): 0.01 ± 0.0004 kPa and 0.01001 ± 0.0004 kPa
vapor or sublimation pressure (263.15 K; Crystal; Closed cell (Static) method): 0.01211 ± 0.00048 kPa
vapor or sublimation pressure (263.15 K; Metastable liquid; Closed cell (Static) method): 0.01574 ± 0.00056 kPa and 0.01575 ± 0.00056 kPa and 0.01576 ± 0.00056 kPa
vapor or sublimation pressure (268.15 K; Crystal; Closed cell (Static) method): 0.02109 ± 0.00064 kPa and 0.0211 ± 0.00064 kPa
vapor or sublimation pressure (268.15 K; Metastable liquid; Closed cell (Static) method): 0.02431 ± 0.00069 kPa [middle of 4 runs]
vapor or sublimation pressure (273.15 K; Crystal; Closed cell (Static) method): 0.03596 ± 0.00088 kPa and 0.03597 ± 0.00088 kPa
vapor or sublimation pressure (273.65 K; Metastable liquid; Closed cell (Static) method): 0.03833 ± 0.00092 kPa and 0.03835 ± 0.00092 kPa and 0.03836 ± 0.00092 kPa
vapor or sublimation pressure (278.15 K; Closed cell (Static) method; Liquid): 0.05478 ± 0.0012 kPa and 0.0548 ± 0.0012 kPa
vapor or sublimation pressure (283.15 K; Closed cell (Static) method; Liquid): 0.0801 ± 0.0016 kPa and 0.08012 ± 0.0016 kPa
vapor or sublimation pressure (288.15 K; Closed cell (Static) method; Liquid): 0.1151 ± 0.0022 kPa and 0.1152 ± 0.0022 kPa
vapor or sublimation pressure (293.15 K; Closed cell (Static) method; Liquid): 0.1637 ± 0.0027 kPa
vapor or sublimation pressure (298.15 K; Closed cell (Static) method; Liquid): 0.2295 ± 0.0035 kPa and 0.2296 ± 0.0035 kPa
vapor or sublimation pressure (303.15 K; Closed cell (Static) method; Liquid): 0.3169 ± 0.0046 kPa and 0.317 ± 0.0046 kPa
Normal melting temperature (Crystal; DTA): 1.0 ± 0.5 °C
molar heat capacity at constant pressure ([2]; 273.4 K; 101.33 kPa; Metastable liquid; Large sample (1 g) DSC): 257.8 ± 4.5 J/K/mol
molar heat capacity at constant pressure ([2]; 278.5 K; 101.33 kPa; Large sample (1 g) DSC; Liquid): 260.2 ± 4.5 J/K/mol
molar heat capacity at constant pressure ([2]; 283.6 K; 101.33 kPa; Large sample (1 g) DSC; Liquid): 262.3 ± 4.6 J/K/mol
molar heat capacity at constant pressure ([2]; 288.7 K; 101.33 kPa; Large sample (1 g) DSC; Liquid): 264.6 ± 4.6 J/K/mol
molar heat capacity at constant pressure ([2]; 293.8 K; 101.33 kPa; Large sample (1 g) DSC; Liquid): 267.3 ± 4.7 J/K/mol
molar heat capacity at constant pressure ([2]; 298.9 K; 101.33 kPa; Large sample (1 g) DSC; Liquid): 270.7 ± 4.7 J/K/mol
molar heat capacity at constant pressure ([2]; 304 K; 101.33 kPa; Large sample (1 g) DSC; Liquid): 273.3 ± 4.7 J/K/mol
molar heat capacity at constant pressure ([2]; 309.1 K; 101.33 kPa; Large sample (1 g) DSC; Liquid): 276.1 ± 4.8 J/K/mol
molar heat capacity at constant pressure ([2]; 314.2 K; 101.33 kPa; Large sample (1 g) DSC; Liquid): 279.3 ± 4.8 J/K/mol
molar heat capacity at constant pressure ([2]; 319.4 K; 101.33 kPa; Large sample (1 g) DSC; Liquid): 281.4 ± 4.9 J/K/mol
molar heat capacity at constant pressure ([2]; 324.5 K; 101.33 kPa; Large sample (1 g) DSC; Liquid): 284.6 ± 4.9 J/K/mol
molar heat capacity at constant pressure ([2]; 329.6 K; 101.33 kPa; Large sample (1 g) DSC; Liquid): 288 ± 5 J/K/mol
molar heat capacity at constant pressure ([2]; 334.7 K; 101.33 kPa; Large sample (1 g) DSC; Liquid): 290.9 ± 5.1 J/K/mol
molar heat capacity at constant pressure ([2]; 339.8 K; 101.33 kPa; Large sample (1 g) DSC; Liquid): 294.2 ± 5.1 J/K/mol
molar heat capacity at constant pressure ([2]; 344.9 K; 101.33 kPa; Large sample (1 g) DSC; Liquid): 297.3 ± 5.2 J/K/mol
molar heat capacity at constant pressure ([2]; 350 K; 101.33 kPa; Large sample (1 g) DSC; Liquid): 301.2 ± 5.2 J/K/mol
molar heat capacity at constant pressure ([2]; 355.1 K; 101.33 kPa; Large sample (1 g) DSC; Liquid): 304.6 ± 5.2 J/K/mol

C[C@H]1CC[C@H]2C[C@@H]1C2(C)C [(-)-trans-pinane]
vapor or sublimation pressure (238.15 K; Liquid; Closed cell (Static) method): 0.002871 ± 0.00015 kPa and 0.002872 ± 0.00015 kPa
vapor or sublimation pressure (243.15 K; Liquid; Closed cell (Static) method): 0.004792 ± 0.00021 kPa and 0.004794 ± 0.00021 kPa
vapor or sublimation pressure [3]: 0.007832 ± 0.00032 kPa and 0.007836 ± 0.00032 kPa and 0.007837 ± 0.00032 kPa
vapor or sublimation pressure [4]: 0.0125 ± 0.0005 kPa
vapor or sublimation pressure [5]: 0.01954 ± 0.00062 kPa
vapor or sublimation pressure [6]: 0.02999 ± 0.00078 kPa and 0.03 ± 0.00078 kPa
vapor or sublimation pressure [7]: 0.04518 ± 0.001 kPa and 0.0452 ± 0.001 kPa
vapor or sublimation pressure [8]: 0.06684 ± 0.0014 kPa and 0.06685 ± 0.0014 kPa and 0.06686 ± 0.0014 kPa
vapor or sublimation pressure [9]: 0.06947 ± 0.0015 kPa
vapor or sublimation pressure [10]: 0.09731 ± 0.0019 kPa and 0.09732 ± 0.0019 kPa
vapor or sublimation pressure [11]: 0.1394 ± 0.0024 kPa
vapor or sublimation pressure [12]: 0.1968 ± 0.0031 kPa
vapor or sublimation pressure [13]: 0.2741 ± 0.004 kPa
vapor or sublimation pressure [14]: 0.3766 ± 0.0053 kPa and 0.3767 ± 0.0053 kPa
vapor or sublimation pressure [15]: 0.5114 ± 0.007 kPa
vapor or sublimation pressure [16]: 0.6862 ± 0.0091 kPa and 0.6863 ± 0.0091 kPa
molar heat capacity at constant pressure ([2]; 258.1 K; 101.33 kPa; Liquid; Large sample (1 g) DSC): 227.6 ± 3.9 J/K/mol
molar heat capacity at constant pressure ([2]; 263.2 K; 101.33 kPa; Liquid; Large sample (1 g) DSC): 230.3 ± 4 J/K/mol
molar heat capacity at constant pressure ([2]; 268.3 K; 101.33 kPa; Liquid; Large sample (1 g) DSC): 233.4 ± 4.1 J/K/mol
molar heat capacity at constant pressure ([2]; 273.4 K; 101.33 kPa; Liquid; Large sample (1 g) DSC): 236.3 ± 4.1 J/K/mol
molar heat capacity at constant pressure ([2]; 278.5 K; 101.33 kPa; Liquid; Large sample (1 g) DSC): 239.3 ± 4.2 J/K/mol
molar heat capacity at constant pressure ([2]; 283.6 K; 101.33 kPa; Liquid; Large sample (1 g) DSC): 242.3 ± 4.2 J/K/mol
molar heat capacity at constant pressure ([2]; 288.7 K; 101.33 kPa; Liquid; Large sample (1 g) DSC): 245.3 ± 4.2 J/K/mol
molar heat capacity at constant pressure ([2]; 293.8 K; 101.33 kPa; Liquid; Large sample (1 g) DSC): 248.3 ± 4.3 J/K/mol
molar heat capacity at constant pressure ([2]; 298.9 K; 101.33 kPa; Liquid; Large sample (1 g) DSC): 251.3 ± 4.3 J/K/mol
molar heat capacity at constant pressure ([2]; 304 K; 101.33 kPa; Liquid; Large sample (1 g) DSC): 254.3 ± 4.4 J/K/mol
molar heat capacity at constant pressure ([2]; 309.1 K; 101.33 kPa; Liquid; Large sample (1 g) DSC): 257.4 ± 4.5 J/K/mol

C=C(C)[C@H]1CC=C(C)CC1 [(R)-1-methyl-4-(1-methylethenyl)cyclohexene]
vapor or sublimation pressure (238.2 K; Liquid; Closed cell (Static) method): 0.001012 ± 0.00011 kPa and 0.001013 ± 0.00011 kPa
vapor or sublimation pressure (243.2 K; Liquid; Closed cell (Static) method): 0.001755 ± 0.00012 kPa and 0.001756 ± 0.00012 kPa
vapor or sublimation pressure [3]: 0.002958 ± 0.00015 kPa and 0.002959 ± 0.00015 kPa and 0.00296 ± 0.00015 kPa
vapor or sublimation pressure [4]: 0.00489 ± 0.00021 kPa and 0.004891 ± 0.00021 kPa and 0.004889 ± 0.00021 kPa
vapor or sublimation pressure [5]: 0.0079 ± 0.00032 kPa and 0.007901 ± 0.00032 kPa
vapor or sublimation pressure [6]: 0.01251 ± 0.0005 kPa and 0.01252 ± 0.0005 kPa
vapor or sublimation pressure [7]: 0.01942 ± 0.00061 kPa
vapor or sublimation pressure [8]: 0.02957 ± 0.00077 kPa
vapor or sublimation pressure [9]: 0.0308 ± 0.00079 kPa and 0.03082 ± 0.00079 kPa
vapor or sublimation pressure [10]: 0.04422 ± 0.001 kPa
vapor or sublimation pressure [11]: 0.06502 ± 0.0014 kPa and 0.06504 ± 0.0014 kPa and 0.06505 ± 0.0014 kPa
vapor or sublimation pressure [12]: 0.09414 ± 0.0019 kPa and 0.09416 ± 0.0019 kPa
vapor or sublimation pressure [13]: 0.1343 ± 0.0023 kPa
vapor or sublimation pressure [14]: 0.1888 ± 0.003 kPa and 0.1889 ± 0.003 kPa
vapor or sublimation pressure [15]: 0.262 ± 0.0039 kPa
vapor or sublimation pressure [16]: 0.3589 ± 0.0051 kPa
